# Measured values: patent US8859611B2, “Thiophene inhibitors of S-nitrosoglutathione reductase” (N30 Pharmaceuticals, Inc., priority 2009, dated 2014)
# pIC50: −log10 of the molar value.
# Target: T1, GSNOR (Homo sapiens, UniProt P11766)
# T1 construct: made in house; host or cells: E. coli (arabinose-induced)
# Experiment: GSNOR assay (in vitro inhibition of GSNOR activity, NADH absorbance at 340 nm)
# Type: biochemical
# Conditions: 100 mM NaPO4 pH 7.4, 0.240 mM GSNO, 0.300 mM NADH, 0.5 μg/mL GSNO Reductase, 1% DMSO, 25° C.; read-out: IC50 (GSNOR inhibitor activity)
# Method: Various compounds were tested in vitro for their ability to inhibit GSNOR activity.
# GSNOR expression and purification is described in Biochemistry 2000, 39, 10720-10729.
# Pre-cultures were grown from stabs of a GSNOR glycerol stock in 2XYT media containing 100 ug/ml ampicillin after an overnight incubation at 37° C. Cells were then added to fresh 2XYT (4 L) containing ampicillin and grown to an OD (A600) of 0.6-0.9 at 37° C. before induction. GSNOR expression was induced with 0.1% arabinose in an overnight incubation at 20° C.
# E. coli cell paste was lysed by nitrogen cavitation and the clarified lysate purified by Ni affinity chromatography on an AKTA FPLC (Amersham Pharmacia). The column was eluted in 20 mM Tris pH 8.0/250 mM NaCl with a 0-500 mM imidazole gradient. Eluted GSNOR fractions containing the Smt-GSNOR fusion were digested overnight with Ulp-1 at 4° C. to remove the affinity tag then re-run on the Ni column under the same conditions. GSNOR was recovered in the flowthrough fraction and for crystallography is further purified by Q-Sepharose and Heparin flowthrough chromatography in 20 mM Tris pH 8.0, 1 mM DTT, 10 uM ZnSO4.
# GSNO and enzyme/NADH Solutions are made up fresh each day. The solutions are filtered and allowed to warm to room temperature. GSNO solution: 100 mM NaPO4 (pH 7.4), 0.480 mM GSNO. 396 μL of GSNO Solution is added to a cuvette followed by 8 μL of test compound in DMSO (or DMSO only for full reaction control) and mixed with the pipette tip. Compounds to be tested are made up at a stock concentration of 10 mM in 100% DMSO. 2 fold serial dilutions are done in 100% DMSO. 8 μL of each dilution are added to an assay so that the final concentration of DMSO in the assay is 1%. The concentrations of compounds tested range from 100 to 0.003 μM. Enzyme/NADH solution: 100 mM NaPO4 (pH 7.4), 0.600 mM NADH, 1.0 μg/mL GSNO Reductase. 396 μL of the Enzyme/NADH solution is added to the cuvette to start the reaction. The cuvette is placed in the Cary 3E UV/Visible Spectrophotometer and the change in 340 nm absorbance/min at 25° C. is recorded for 3 minutes. The assays are done in triplicate for each compound concentration. IC50's for each compound are calculated using the standard curve analysis in the Enzyme Kinetics Module of SigmaPlot.
# Final assay conditions: 100 mM NaPO4, pH 7.4, 0.240 mM GSNO, 0.300 mM NADH, 0.5 μg/mL GSNO Reductase, and 1% DMSO. Final volume: 800 μL/cuvette.
# T1 sequence (P11766 whole entry): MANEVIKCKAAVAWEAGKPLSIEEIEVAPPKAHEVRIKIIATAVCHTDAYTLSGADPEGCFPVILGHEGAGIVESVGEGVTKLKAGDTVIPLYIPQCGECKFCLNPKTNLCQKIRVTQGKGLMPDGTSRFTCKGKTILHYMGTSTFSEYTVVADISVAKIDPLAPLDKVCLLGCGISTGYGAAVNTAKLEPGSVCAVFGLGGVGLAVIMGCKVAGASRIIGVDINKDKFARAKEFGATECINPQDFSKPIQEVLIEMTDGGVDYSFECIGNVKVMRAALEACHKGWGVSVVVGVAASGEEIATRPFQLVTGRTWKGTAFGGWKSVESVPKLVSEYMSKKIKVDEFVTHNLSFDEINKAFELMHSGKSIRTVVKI
row,SMILES,pIC50
1,"Cc1cc(C(N)=O)ccc1-c1c(-c2ccc(-n3ccnc3C)s2)csc1CCC(=O)O [Example 11, 3-(4′-(4-carbamoyl-2-methylphenyl)-5-(2-methyl-1H-imidazol-1-yl)-2,3′-bithiophen-5′-yl)propanoic acid]",> 6.00
2,"Cc1cc(NS(C)(=O)=O)ccc1-c1c(-c2ccc(-n3ccnc3C)s2)csc1CCC(=O)O [Example 12, 3-(5-(2-methyl-1H-imidazol-1-yl)-4′-(2-methyl-4-(methylsulfonamido)phenyl)-2,3′-bithiophen-5′-yl)propanoic acid]",> 6.00
3,"Cc1nccn1-c1ccc(-c2csc(CCC(=O)O)c2-c2ccc(C(N)=O)cc2)cc1 [Example 8, 3-(3-(4-carbamoylphenyl)-4-(4-(2-methyl-1H-imidazol-1-yl)phenyl)thiophen-2-yl)propanoic acid]",> 6.00
4,"Cc1cc(NS(C)(=O)=O)ccc1-c1c(-c2ccc(-n3ccnc3C)cc2)csc1CCC(=O)O [Example 9, 3-(4-(4-(2-methyl-1H-imidazol-1-yl)phenyl)-3-(2-methyl-4-(methylsulfonamido)phenyl)thiophen-2-yl)propanoic acid]",> 6.00
5,"COc1cc(Cl)ccc1-c1csc(CCC(=O)O)c1-c1ccc(O)cc1 [Example 4, 3-(4-(4-chloro-2-methoxyphenyl)-3-(4-hydroxyphenyl)thiophen-2-yl)propanoic acid]",> 6.00

# Second part, the compound after the results:
row,pIC50,SMILES
1,> 6.00,"COc1cc(Cl)ccc1-c1csc(CCC(=O)O)c1-c1ccc(C(N)=O)cc1 [Example 2, 3-(3-(4-carbamoylphenyl)-4-(4-chloro-2-methoxyphenyl)thiophen-2-yl)propanoic acid]"
2,> 6.00,"COc1ccc(-c2csc(CCC(=O)O)c2-c2ccc(C(N)=O)cc2C)cc1 [Example 1, 3-(3-(4-carbamoyl-2-methylphenyl)-4-(4-methoxyphenyl)thiophen-2-yl)propanoic acid]"
3,> 6.00,"Cc1cc(C(N)=O)ccc1-c1c(-c2ccc(Br)cc2)csc1CCC(=O)O [Example 13, 3-(4-(4-bromophenyl)-3-(4-carbamoyl-2-methylphenyl)thiophen-2-yl)propanoic acid]"
4,> 6.00,"COc1ccc(-c2scc(CCC(=O)O)c2-c2ccc(C(N)=O)cc2C)cc1 [Example 14, 3-(4-(4-carbamoyl-2-methylphenyl)-5-(4-methoxyphenyl)thiophen-3-yl)propanoic acid]"
5,> 6.00,"Cc1cc(C(N)=O)ccc1-c1c(-c2ccc(-n3ccnc3C)cc2)csc1CCC(=O)O [Example 7, 3-(3-(4-carbamoyl-2-methylphenyl)-4-(4-(2-methyl-1H-imidazol-1-yl)phenyl)thiophen-2-yl)propanoic acid]"
